Assay results reported in ChEMBL document CHEMBL3352542, “Synthesis, biological evaluation and molecular modeling study of 2-(1,3,4-thiadiazolyl-thio and 4-methyl-thiazolyl-thio)-quinazolin-4-ones as a new class of DHFR inhibitors” (Bioorg Med Chem Lett, 2014).

Assays:
[1] = tested on: KM12; test: Growth inhibition of human KM12 cells at 10 uM after 48 hrs; assay type: functional; details: KM12, 48 h, read-out: GI
[2] = tested on: T47D; test: Growth inhibition of human T47D cells at 10 uM after 48 hrs; assay type: functional; details: read-out: GI
[3] = Growth inhibition of human HOP92 cells at 10 uM after 48 hrs; assay type: functional; details: HOP-92, 48 h, read-out: GI
[4] = tested on: MDA-MB-435; test: Growth inhibition of human MDA-MB-435 cells at 10 uM after 48 hrs; assay type: functional; details: MDA-MB-435, 48 h, read-out: GI
[5] = tested on: U-251; test: Growth inhibition of human U251 cells at 10 uM after 48 hrs; assay type: functional; details: U-251, 48 h, read-out: GI
[6] = Growth inhibition of human UACC257 cells at 10 uM after 48 hrs; assay type: functional; details: UACC-257, 48 h, read-out: GI
[7] = Growth inhibition of human UACC62 cells at 10 uM after 48 hrs; assay type: functional; details: UACC-62, 48 h, read-out: GI
[8] = tested on: CAKI-1; test: Growth inhibition of human CAKI-1 cells at 10 uM after 48 hrs; assay type: functional; details: CAKI-1, 48 h, read-out: GI
[9] = tested on: NCI-H460; test: Growth inhibition of human NCI-H460 cells at 10 uM after 48 hrs; assay type: functional; details: NCI-H460, 48 h, read-out: GI
[10] = Growth inhibition of human PC3 cells at 10 uM after 48 hrs; assay type: functional; details: PC-3, 48 h, read-out: GI
[11] = tested on: Pseudomonas aeruginosa; test: Antimicrobial activity against Pseudomonas aeruginosa assessed as inhibition zone at 200 ug/disk after 24 hrs by disc-diffusion method; assay type: functional; details: read-out: IZ
[12] = tested on: A549; test: Growth inhibition of human A549 cells at 10 uM after 48 hrs; assay type: functional; details: A549, 48 h, read-out: GI
[13] = tested on: K562; test: Growth inhibition of human K562 cells at 10 uM after 48 hrs; assay type: functional; details: K562, 48 h, read-out: GI
[14] = tested on: M14; test: Growth inhibition of human M14 cells at 10 uM after 48 hrs; assay type: functional; details: M14, 48 h, read-out: GI
[15] = Growth inhibition of human OVCAR4 cells at 10 uM after 48 hrs; assay type: functional; details: OVCAR-4, 48 h, read-out: GI
[16] = Growth inhibition of human HCT15 cells at 10 uM after 48 hrs; assay type: functional; details: HCT-15, 48 h, read-out: GI
[17] = tested on: SK-MEL-5; test: Growth inhibition of human SK-MEL-5 cells at 10 uM after 48 hrs; assay type: functional; details: SK-MEL-5, 48 h, read-out: GI
[18] = tested on: MDA-MB-231; test: Growth inhibition of human MDA-MB-231 cells at 10 uM after 48 hrs; assay type: functional; details: MDA-MB-231, 48 h, read-out: GI
[19] = molecular target: T1, Dihydrofolate reductase (Bos taurus, UniProt P00376); test: Inhibition of bovine liver DHFR
T1 sequence (P00376 whole entry): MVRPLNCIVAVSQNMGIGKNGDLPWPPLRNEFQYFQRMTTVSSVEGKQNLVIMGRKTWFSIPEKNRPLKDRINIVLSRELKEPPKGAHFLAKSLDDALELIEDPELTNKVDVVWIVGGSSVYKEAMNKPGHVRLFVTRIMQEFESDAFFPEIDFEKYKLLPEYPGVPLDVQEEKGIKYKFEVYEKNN

[20] = Growth inhibition of human UO31 cells at 10 uM after 48 hrs; assay type: functional; details: UO-31, 48 h, read-out: GI
[21] = tested on: A498; test: Growth inhibition of human A498 cells at 10 uM after 48 hrs; assay type: functional; details: A498, 48 h, read-out: GI
[22] = tested on: MCF7; test: Growth inhibition of human MCF7 cells at 10 uM after 48 hrs; assay type: functional; details: MCF7, 48 h, read-out: GI
[23] = tested on: NCI-H226; test: Growth inhibition of human NCI-H226 cells at 10 uM after 48 hrs; assay type: functional; details: NCI-H226, 48 h, read-out: GI
[24] = tested on: HT-29; test: Growth inhibition of human HT-29 cells at 10 uM after 48 hrs; assay type: functional; details: HT-29, 48 h, read-out: GI
[25] = Growth inhibition of human LOXIMVI cells at 10 uM after 48 hrs; assay type: functional; details: LOX IMVI, read-out: GI
[26] = tested on: 786-0; test: Growth inhibition of human 786-0 cells at 10 uM after 48 hrs; assay type: functional; details: 786-0, 48 h, read-out: GI
[27] = Growth inhibition of human BT549 cells at 10 uM after 48 hrs; assay type: functional; details: BT-549, 48 h, read-out: GI
[28] = tested on: TK-10; test: Growth inhibition of human TK10 cells at 10 uM after 48 hrs; assay type: functional; details: TK-10, 48 h, read-out: GI
[29] = Growth inhibition of human HCC2998 cells at 10 uM after 48 hrs; assay type: functional; details: HCC 2998, 48 h, read-out: GI
[30] = tested on: Bacillus subtilis; test: Antimicrobial activity against Bacillus subtilis assessed as inhibition zone at 200 ug/disk after 24 hrs by disc-diffusion method; assay type: functional; details: read-out: IZ
[31] = tested on: HL-60(TB); test: Growth inhibition of human HL-60(TB) cells at 10 uM after 48 hrs; assay type: functional; details: HL-60, 48 h, read-out: GI
[32] = tested on: CCRF-CEM; test: Growth inhibition of human CCRF-CEM cells at 10 uM after 48 hrs; assay type: functional; details: read-out: GI
[33] = Growth inhibition of human RPMI8226 cells at 10 uM after 48 hrs; assay type: functional; details: RPMI-8226, 48 h, read-out: GI
[34] = Growth inhibition of human Hs 578T cells at 10 uM after 48 hrs; assay type: functional; details: read-out: GI
[35] = tested on: Staphylococcus aureus; test: Antimicrobial activity against Staphylococcus aureus assessed as inhibition zone at 200 ug/disk after 24 hrs by disc-diffusion method; assay type: functional; details: read-out: IZ
[36] = tested on: SN12C; test: Growth inhibition of human SN12C cells at 10 uM after 48 hrs; assay type: functional; details: read-out: GI
[37] = Growth inhibition of human HCT116 cells at 10 uM after 48 hrs; assay type: functional; details: HCT-116, 48 h, read-out: GI
[38] = Growth inhibition of human OVCAR8 cells at 10 uM after 48 hrs; assay type: functional; details: OVCAR-8, 48 h, read-out: GI
[39] = tested on: Escherichia coli; test: Antimicrobial activity against Escherichia coli assessed as inhibition zone at 200 ug/disk after 24 hrs by disc-diffusion method; assay type: functional; details: read-out: IZ
[40] = tested on: NCI-H23; test: Growth inhibition of human NCI-H23 cells at 10 uM after 48 hrs; assay type: functional; details: NCI-H23, 48 h, read-out: GI
[41] = Growth inhibition of human OVCAR5 cells at 10 uM after 48 hrs; assay type: functional; details: OVCAR-5, 48 h, read-out: GI
[42] = tested on: SNB-19; test: Growth inhibition of human SNB19 cells at 10 uM after 48 hrs; assay type: functional; details: SNB-19, 48 h, read-out: GI
[43] = tested on: NCI-H522; test: Growth inhibition of human NCI-H522 cells at 10 uM after 48 hrs; assay type: functional; details: NCI-H522, 48 h, read-out: GI
[44] = tested on: MDA-MB-468; test: Growth inhibition of human MDA-MB-468 cells at 10 uM after 48 hrs; assay type: functional; details: MDA-MB-468, 48 h, read-out: GI
[45] = Growth inhibition of human NCI-ADR-RES cells at 10 uM after 48 hrs; assay type: functional; details: read-out: GI
[46] = Growth inhibition of human SF295 cells at 10 uM after 48 hrs; assay type: functional; details: SF-295, 48 h, read-out: GI
[47] = tested on: ACHN; test: Growth inhibition of human ACHN cells at 10 uM after 48 hrs; assay type: functional; details: read-out: GI
[48] = tested on: Candida albicans; test: Antimicrobial activity against Candida albicans assessed as inhibition zone at 200 ug/disk after 24 hrs by disc-diffusion method; assay type: functional; details: read-out: IZ
[49] = Growth inhibition of human RXF393 cells at 10 uM after 48 hrs; assay type: functional; details: RXF 393, 48 h, read-out: GI
[50] = Growth inhibition of human MOLT4 cells at 10 uM after 48 hrs; assay type: functional; details: MOLT-4, 48 h, read-out: GI
[51] = tested on: SW-620; test: Growth inhibition of human SW620 cells at 10 uM after 48 hrs; assay type: functional; details: SW-620, 48 h, read-out: GI

Cc1nc(N)sc1Sc1nc2ccc(Cl)cc2c(=O)n1-c1ccc(Oc2ccccc2)cc1
inhibition of growth at 10 µM [1]: 20.2%
inhibition of growth at 10 µM [2]: 24.5%
inhibition of growth at 10 µM [3]: 25.6%
inhibition of growth at 10 µM [4]: 11.9%
inhibition of growth at 10 µM [5]: 22.8%
inhibition of growth at 10 µM [6]: 24.3%
inhibition of growth at 10 µM [7]: 36.1%
inhibition of growth at 10 µM [8]: 26.5%
inhibition of growth at 10 µM [9]: 18%
inhibition of growth at 10 µM [10]: 51.1%
zone of inhibition at 200 µg/disc [11]: 8 mm
inhibition of growth at 10 µM [12]: 29.8%
inhibition of growth at 10 µM [13]: 25.7%
inhibition of growth at 10 µM [14]: 23.4%
inhibition of growth at 10 µM [15]: 59.1%
inhibition of growth at 10 µM [16]: 44.6%
inhibition of growth at 10 µM [17]: 23.9%
inhibition of growth at 10 µM [18]: 10.7%
IC50 [19]: 1 µM
inhibition of growth at 10 µM [20]: 38.3%
inhibition of growth at 10 µM [21]: 60.2%
inhibition of growth at 10 µM [22]: 12.6%
inhibition of growth at 10 µM [23]: 13.6%
inhibition of growth at 10 µM [24]: 44.1%
inhibition of growth at 10 µM [25]: 24.5%
inhibition of growth at 10 µM [26]: 31.5%
inhibition of growth at 10 µM [27]: 36.8%
inhibition of growth at 10 µM [28]: 11.1%
inhibition of growth at 10 µM [29]: 26%
zone of inhibition at 200 µg/disc [30]: 8 mm
inhibition of growth at 10 µM [31]: 40.6%
inhibition of growth at 10 µM [32]: 58.5%
inhibition of growth at 10 µM [33]: 32%
inhibition of growth at 10 µM [34]: 18.1%
zone of inhibition at 200 µg/disc [35]: 8 mm
inhibition of growth at 10 µM [36]: 26.1%
inhibition of growth at 10 µM [37]: 66.7%
inhibition of growth at 10 µM [38]: 24.9%
zone of inhibition at 200 µg/disc [39]: 8 mm
inhibition of growth at 10 µM [40]: 26%
inhibition of growth at 10 µM [41]: 12.1%
inhibition of growth at 10 µM [42]: 30.7%
inhibition of growth at 10 µM [43]: 14.7%
inhibition of growth at 10 µM [44]: 23.4%
inhibition of growth at 10 µM [45]: 30.1%
inhibition of growth at 10 µM [46]: 32.2%
inhibition of growth at 10 µM [47]: 21.5%
zone of inhibition at 200 µg/disc [48]: 8 mm
inhibition of growth at 10 µM [49]: 13.4%
inhibition of growth at 10 µM [50]: 55.7%
inhibition of growth at 10 µM [51]: 33.9%
